SMILES	Glass transition temperature of the amorphous form (DSC)	Tg of the amorphous form relative to normal storage temperature (normal storage temperature of 20° C. to 25° C.)
CCN(CC)CC#CCOC(=O)C(O)(c1ccccc1)C1CCCCC1 (centres unmarked) [oxybutynin base, oxybutynin]	about −20 °C	–
CN1[C@@H]2C[C@@H](OC(=O)[C@H](CO)c3ccccc3)C[C@H]1[C@@H]1O[C@@H]12 [scopolamine]	–	lower than the normal storage temperature

— US20080226698A1 (priority 2007, published 2008)
